≈ marks a conversion by molar mass, not a printed value.
Columns and labels:
[1] = system: Mus musculus; assay: Ex-vivo inhibition of BTK in C57BL/6J mouse assessed as anti-mouse IgD antibody stimulated BCR mediated CD69 level in whole blood isolated from 100 mg/kg, po bid treated mouse measured after 6 hrs post first dose by flow cytometry relative to control; assay type: functional; design: scale not given: the % may be the effect or the level left
[2] = system: Mus musculus; assay: Ex-vivo inhibition of BTK in C57BL/6J mouse assessed as anti-mouse IgD antibody stimulated BCR mediated CD69 level in whole blood isolated from 30 mg/kg, po bid treated mouse measured after 6 hrs post first dose by flow cytometry relative to control; assay type: functional; design: scale not given: the % may be the effect or the level left
[3] = biological target: Tyrosine-protein kinase ZAP-70 (Homo sapiens) (UniProt P43403); assay: Inhibition of recombinant human full length N-terminal GST-tagged ZAP70 expressed in baculovirus infected Sf9 cells assessed as change in enzyme activity at 1 uM in presence of 2 uM ATP relative to control; design: scale not given: the % may be the effect or the level left
[4] = biological target: Ribosomal protein S6 kinase (Homo sapiens) (UniProt P51812+Q9UBS0+O75676+Q15349+O75582+P23443+Q9UK32+Q15418); assay: Inhibition of recombinant human full length N-terminal GST-tagged p70S6K expressed in baculovirus infected Sf9 cells assessed as change in enzyme activity at 1 uM in presence of 2 uM ATP relative to control; design: scale not given: the % may be the effect or the level left
[5] = biological target: Mitogen-activated protein kinase kinase kinase 9 (Homo sapiens) (UniProt P80192); assay: Inhibition of recombinant human N-terminal GST-tagged MLK1 (1 to 433 residues) expressed in baculovirus infected Sf9 cells assessed as change in enzyme activity at 1 uM in presence of 2 uM ATP relative to control; design: scale not given: the % may be the effect or the level left
[6] = Equilibrium aqueous solubility of the compound at pH 7.4; assay type: physicochemical
[7] = biological target: Protein kinase C (PKC) (Homo sapiens) (UniProt O94806+P41743+P17252+P05129+Q05655+P05771+Q05513+Q02156+P24723+Q15139+Q04759); assay: Inhibition of recombinant human full length N-terminal GST-tagged PKCalpha expressed in baculovirus infected Sf9 cells assessed as change in enzyme activity at 1 uM in presence of 1 uM ATP relative to control; design: scale not given: the % may be the effect or the level left
[8] = biological target: Ephrin type-A receptor 3 (Homo sapiens) (UniProt P29320); assay: Inhibition of recombinant human N-terminal GST-tagged EPHA3 (571 to end residues) expressed in baculovirus infected Sf9 cells assessed as change in enzyme activity at 1 uM in presence of 2 uM ATP relative to control; design: scale not given: the % may be the effect or the level left
Chain of Ephrin type-A receptor 3 (Homo sapiens) (P29320 whole entry, the tested form may be a part): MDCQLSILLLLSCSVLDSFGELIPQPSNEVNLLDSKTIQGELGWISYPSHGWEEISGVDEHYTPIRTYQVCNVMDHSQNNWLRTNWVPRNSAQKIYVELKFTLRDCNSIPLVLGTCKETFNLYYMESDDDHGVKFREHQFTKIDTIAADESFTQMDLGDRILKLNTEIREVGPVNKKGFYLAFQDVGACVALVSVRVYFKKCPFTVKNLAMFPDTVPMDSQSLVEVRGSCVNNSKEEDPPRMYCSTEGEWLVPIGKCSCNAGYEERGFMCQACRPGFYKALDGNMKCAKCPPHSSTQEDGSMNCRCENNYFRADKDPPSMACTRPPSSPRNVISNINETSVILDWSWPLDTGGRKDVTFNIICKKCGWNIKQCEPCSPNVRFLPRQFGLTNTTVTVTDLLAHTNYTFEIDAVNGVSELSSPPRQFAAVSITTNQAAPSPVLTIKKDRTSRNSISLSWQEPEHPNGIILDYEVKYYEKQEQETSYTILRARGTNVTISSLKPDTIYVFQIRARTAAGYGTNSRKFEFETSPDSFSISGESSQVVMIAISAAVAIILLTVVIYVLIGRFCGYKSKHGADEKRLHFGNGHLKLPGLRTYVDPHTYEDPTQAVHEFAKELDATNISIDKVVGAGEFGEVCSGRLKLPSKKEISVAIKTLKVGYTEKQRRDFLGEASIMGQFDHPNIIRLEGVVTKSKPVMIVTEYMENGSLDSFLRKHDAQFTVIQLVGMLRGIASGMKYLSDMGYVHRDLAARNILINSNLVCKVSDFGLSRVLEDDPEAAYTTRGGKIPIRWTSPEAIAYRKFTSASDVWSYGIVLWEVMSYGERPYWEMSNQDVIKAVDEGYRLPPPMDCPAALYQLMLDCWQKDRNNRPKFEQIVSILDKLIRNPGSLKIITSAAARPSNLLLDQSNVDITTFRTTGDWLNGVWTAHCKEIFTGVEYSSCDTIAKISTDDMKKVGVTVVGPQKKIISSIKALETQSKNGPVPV

[9] = biological target: Death-associated protein kinase 1 (Homo sapiens) (UniProt P53355); assay: Inhibition of recombinant human N-terminal GST-tagged DAPK1 (1 to363 residues) expressed in baculovirus infected Sf9 cells assessed as change in enzyme activity at 1 uM in presence of 1 uM ATP relative to control; design: scale not given: the % may be the effect or the level left
Chain of Death-associated protein kinase 1 (Homo sapiens) (P53355 whole entry, looked up, the tested form may be a part): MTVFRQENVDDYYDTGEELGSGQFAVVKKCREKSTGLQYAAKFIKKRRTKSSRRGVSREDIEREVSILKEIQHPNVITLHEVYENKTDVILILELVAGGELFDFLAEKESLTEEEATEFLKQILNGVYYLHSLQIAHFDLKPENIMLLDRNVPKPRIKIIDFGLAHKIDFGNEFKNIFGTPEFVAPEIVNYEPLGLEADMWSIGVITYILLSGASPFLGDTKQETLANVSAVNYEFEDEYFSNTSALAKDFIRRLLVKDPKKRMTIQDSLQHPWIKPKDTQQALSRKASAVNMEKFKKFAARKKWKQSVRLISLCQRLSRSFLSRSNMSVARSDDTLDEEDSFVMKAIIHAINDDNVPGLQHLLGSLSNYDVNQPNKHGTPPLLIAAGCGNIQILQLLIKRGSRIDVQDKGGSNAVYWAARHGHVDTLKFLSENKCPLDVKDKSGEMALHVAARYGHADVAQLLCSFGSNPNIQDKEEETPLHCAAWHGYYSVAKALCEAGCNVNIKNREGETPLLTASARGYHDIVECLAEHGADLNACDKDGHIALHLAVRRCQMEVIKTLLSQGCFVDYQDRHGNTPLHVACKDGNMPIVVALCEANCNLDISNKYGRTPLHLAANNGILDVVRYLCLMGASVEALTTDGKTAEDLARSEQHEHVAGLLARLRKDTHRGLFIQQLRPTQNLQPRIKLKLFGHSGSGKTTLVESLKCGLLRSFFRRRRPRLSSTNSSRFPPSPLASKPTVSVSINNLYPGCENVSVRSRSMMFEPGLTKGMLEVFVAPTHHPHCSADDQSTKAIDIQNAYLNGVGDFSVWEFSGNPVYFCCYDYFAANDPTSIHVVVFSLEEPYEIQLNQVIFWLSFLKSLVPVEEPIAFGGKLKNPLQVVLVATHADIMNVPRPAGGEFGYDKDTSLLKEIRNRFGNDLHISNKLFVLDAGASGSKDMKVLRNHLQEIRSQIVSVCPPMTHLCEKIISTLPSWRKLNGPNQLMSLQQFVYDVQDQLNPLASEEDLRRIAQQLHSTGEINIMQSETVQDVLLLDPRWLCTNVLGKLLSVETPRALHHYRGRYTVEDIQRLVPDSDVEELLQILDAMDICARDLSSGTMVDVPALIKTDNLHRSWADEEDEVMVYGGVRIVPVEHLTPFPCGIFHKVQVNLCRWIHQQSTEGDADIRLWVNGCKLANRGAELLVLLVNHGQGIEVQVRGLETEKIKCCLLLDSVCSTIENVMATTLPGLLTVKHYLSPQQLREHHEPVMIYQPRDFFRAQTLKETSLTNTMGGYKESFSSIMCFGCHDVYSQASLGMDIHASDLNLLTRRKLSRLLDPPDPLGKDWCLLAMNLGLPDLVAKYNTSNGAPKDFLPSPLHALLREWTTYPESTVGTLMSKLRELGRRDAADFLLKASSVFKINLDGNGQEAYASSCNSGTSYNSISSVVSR

[10] = biological target: Vascular endothelial growth factor receptor 3 (Homo sapiens) (UniProt P35916); assay: Inhibition of recombinant human N-terminal GST-tagged FLT4 (800 to end residues) expressed in baculovirus infected Sf9 cells assessed as change in enzyme activity at 1 uM in presence of 2 uM ATP relative to control; design: scale not given: the % may be the effect or the level left
[11] = biological target: Calcium/calmodulin-dependent protein kinase type IV (Homo sapiens) (UniProt Q16566); assay: Inhibition of recombinant human full length N-terminal GST-tagged CAMK4 expressed in baculovirus infected Sf9 cells assessed as change in enzyme activity at 1 uM in presence of 2 uM ATP relative to control; design: scale not given: the % may be the effect or the level left
Chain of Calcium/calmodulin-dependent protein kinase type IV (Homo sapiens) (Q16566 whole entry): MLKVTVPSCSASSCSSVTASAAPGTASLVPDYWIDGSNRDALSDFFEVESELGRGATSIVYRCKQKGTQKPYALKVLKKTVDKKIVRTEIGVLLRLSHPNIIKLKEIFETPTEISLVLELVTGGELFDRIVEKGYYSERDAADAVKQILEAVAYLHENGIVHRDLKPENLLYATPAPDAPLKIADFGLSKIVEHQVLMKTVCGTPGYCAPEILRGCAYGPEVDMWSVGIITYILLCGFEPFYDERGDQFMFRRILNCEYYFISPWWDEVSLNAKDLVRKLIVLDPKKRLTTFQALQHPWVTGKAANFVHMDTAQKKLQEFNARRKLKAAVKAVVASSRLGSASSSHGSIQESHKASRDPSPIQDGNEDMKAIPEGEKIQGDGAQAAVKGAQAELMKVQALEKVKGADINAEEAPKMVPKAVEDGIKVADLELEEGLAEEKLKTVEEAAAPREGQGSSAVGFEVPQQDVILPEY

[12] = biological target: Fibroblast growth factor receptor 4 (Homo sapiens) (UniProt P22455); assay: Inhibition of recombinant human N-terminal GST-tagged FGFR4 (460 to end) residues expressed in baculovirus infected Sf9 cells assessed as change in enzyme activity at 1 uM in presence of 1 uM ATP relative to control; design: scale not given: the % may be the effect or the level left
[13] = system: Mus musculus; assay: Ex-vivo inhibition of BTK in C57BL/6J mouse assessed as anti-mouse IgD antibody stimulated BCR mediated CD69 level in whole blood isolated from 10 mg/kg, po bid treated mouse measured after 6 hrs post first dose by flow cytometry relative to control; assay type: functional; design: scale not given: the % may be the effect or the level left
[14] = biological target: Rho-associated protein kinase 1 (Homo sapiens) (UniProt Q13464); assay: Inhibition of recombinant human N-terminal GST-tagged ROCK1 (17 to 535 residues) expressed in baculovirus infected Sf9 cells assessed as change in enzyme activity at 1 uM in presence of 1 uM ATP relative to control; design: scale not given: the % may be the effect or the level left
[15] = system: Mus musculus; assay: Ex-vivo inhibition of BTK in C57BL/6J mouse assessed as anti-mouse IgD antibody stimulated BCR mediated CD69 level in whole blood isolated from 10 mg/kg, po bid treated mouse measured after 2 hrs post first dose by flow cytometry relative to control; assay type: functional; design: scale not given: the % may be the effect or the level left
[16] = biological target: Serine/threonine-protein kinase 4 (Homo sapiens) (UniProt Q13043); assay: Inhibition of recombinant human full length N-terminal GST-tagged MST1 expressed in baculovirus infected Sf9 cells assessed as change in enzyme activity at 1 uM in presence of 1 uM ATP relative to control; design: scale not given: the % may be the effect or the level left
Chain of Serine/threonine-protein kinase 4 (Homo sapiens) (Q13043 whole entry): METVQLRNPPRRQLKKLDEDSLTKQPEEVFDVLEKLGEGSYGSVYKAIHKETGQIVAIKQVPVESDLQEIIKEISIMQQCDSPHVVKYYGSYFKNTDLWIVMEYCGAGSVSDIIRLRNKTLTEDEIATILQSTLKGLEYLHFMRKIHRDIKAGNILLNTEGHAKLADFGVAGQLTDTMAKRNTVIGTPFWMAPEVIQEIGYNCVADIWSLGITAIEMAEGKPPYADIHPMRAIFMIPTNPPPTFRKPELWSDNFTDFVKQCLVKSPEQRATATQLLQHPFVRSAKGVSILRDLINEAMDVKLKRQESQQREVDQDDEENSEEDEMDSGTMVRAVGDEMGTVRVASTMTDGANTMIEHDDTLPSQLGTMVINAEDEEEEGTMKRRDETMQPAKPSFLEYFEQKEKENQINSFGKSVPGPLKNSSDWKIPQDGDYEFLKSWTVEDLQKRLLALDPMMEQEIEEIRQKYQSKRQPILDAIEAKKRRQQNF

[17] = biological target: Interleukin-1 receptor-associated kinase 4 (Homo sapiens) (UniProt Q9NWZ3); assay: Inhibition of recombinant human full length N-terminal GST-tagged IRAK4 expressed in baculovirus infected Sf9 cells assessed as change in enzyme activity at 1 uM in presence of 2 uM ATP relative to control; design: scale not given: the % may be the effect or the level left
Chain of Interleukin-1 receptor-associated kinase 4 (Homo sapiens) (Q9NWZ3 whole entry): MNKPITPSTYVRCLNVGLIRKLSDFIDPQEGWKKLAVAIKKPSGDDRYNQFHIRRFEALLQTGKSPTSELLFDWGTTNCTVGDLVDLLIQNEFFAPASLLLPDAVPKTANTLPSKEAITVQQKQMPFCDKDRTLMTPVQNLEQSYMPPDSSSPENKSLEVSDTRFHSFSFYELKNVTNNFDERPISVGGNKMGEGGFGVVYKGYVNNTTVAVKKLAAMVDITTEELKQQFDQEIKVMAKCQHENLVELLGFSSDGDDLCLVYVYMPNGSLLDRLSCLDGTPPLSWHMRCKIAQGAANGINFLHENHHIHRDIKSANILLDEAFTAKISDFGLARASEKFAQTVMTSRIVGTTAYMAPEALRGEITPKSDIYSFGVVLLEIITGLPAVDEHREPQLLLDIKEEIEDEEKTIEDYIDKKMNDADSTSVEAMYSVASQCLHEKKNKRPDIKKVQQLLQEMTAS

[18] = biological target: Cyclin-dependent kinase 1/Cyclin A1 (Homo sapiens) (UniProt P06493+P78396); assay: Inhibition of recombinant human full length N-terminal GST-tagged CDK1/CyclinA1 expressed in baculovirus infected Sf9 cells assessed as change in enzyme activity at 1 uM in presence of 1 uM ATP relative to control; design: scale not given: the % may be the effect or the level left
Chain of Cyclin-dependent kinase 1/Cyclin A1 (Homo sapiens) (P06493 whole entry, looked up): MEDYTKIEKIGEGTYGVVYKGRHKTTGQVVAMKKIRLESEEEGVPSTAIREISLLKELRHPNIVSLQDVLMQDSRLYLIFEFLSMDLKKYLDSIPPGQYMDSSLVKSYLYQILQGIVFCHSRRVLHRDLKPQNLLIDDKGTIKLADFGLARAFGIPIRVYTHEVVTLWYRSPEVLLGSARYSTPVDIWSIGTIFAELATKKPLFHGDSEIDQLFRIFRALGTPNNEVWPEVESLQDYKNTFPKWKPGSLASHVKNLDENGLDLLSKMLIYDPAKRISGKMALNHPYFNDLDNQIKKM
Chain of Cyclin-dependent kinase 1/Cyclin A1 (Homo sapiens) (P78396 whole entry, looked up): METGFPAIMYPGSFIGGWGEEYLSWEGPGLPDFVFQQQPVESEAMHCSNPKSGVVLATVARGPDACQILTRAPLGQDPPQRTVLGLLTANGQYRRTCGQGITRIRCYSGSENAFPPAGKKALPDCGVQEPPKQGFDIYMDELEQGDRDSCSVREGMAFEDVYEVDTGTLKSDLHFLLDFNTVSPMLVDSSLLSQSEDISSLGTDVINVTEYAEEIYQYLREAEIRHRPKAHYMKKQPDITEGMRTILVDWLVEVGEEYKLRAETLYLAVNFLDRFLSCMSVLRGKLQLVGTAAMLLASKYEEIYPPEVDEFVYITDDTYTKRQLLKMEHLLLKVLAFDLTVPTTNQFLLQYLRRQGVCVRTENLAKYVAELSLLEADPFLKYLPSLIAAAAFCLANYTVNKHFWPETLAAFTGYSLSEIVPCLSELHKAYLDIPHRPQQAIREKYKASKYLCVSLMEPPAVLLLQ

[19] = biological target: Tyrosine-protein kinase BTK (Mus musculus, UniProt P35991); assay: Inhibition of mouse BTK assessed as decrease in anti-CD3epsilon antibody stimulated TCR mediated CD69 upregulation in whole blood preincubated for 1 hr followed by antibody challenge after 4 hrs by flow cytometry
[20] = system: Mus musculus; assay: Ex-vivo inhibition of BTK in C57BL/6J mouse assessed as anti-mouse IgD antibody stimulated BCR mediated CD69 level in whole blood isolated from 100 mg/kg, po bid treated mouse measured after 2 hrs post first dose by flow cytometry relative to control; assay type: functional; design: scale not given: the % may be the effect or the level left
[21] = biological target: Cytoplasmic tyrosine-protein kinase BMX (Homo sapiens) (UniProt P51813); assay: Inhibition of recombinant full length N-terminal GST-tagged BMX (unknown origin) expressed in baculovirus infected Sf9 cells assessed as change in enzyme activity at 1 uM in presence of 2 uM ATP relative to control; design: scale not given: the % may be the effect or the level left
[22] = Half life in mouse at 3 mg/kg, iv; assay type: ADME, organism-based; conditions: in vivo
[23] = biological target: Tyrosine-protein kinase TXK (Homo sapiens, UniProt P42681); assay: Inhibition of TXK (unknown origin)
[24] = biological target: Tyrosine-protein kinase ABL1 (Homo sapiens) (UniProt P00519); assay: Inhibition of recombinant human N-terminal GST-tagged ABL1 (27 to end residues) expressed in baculovirus infected Sf9 cells assessed as change in enzyme activity at 1 uM in presence of 1 uM ATP relative to control; design: scale not given: the % may be the effect or the level left
[25] = biological target: Mitogen-activated protein kinase 14 (Homo sapiens) (UniProt Q16539); assay: Inhibition of recombinant human full length N-terminal GST-tagged p38alpha expressed in baculovirus infected Sf9 cells assessed as change in enzyme activity at 1 uM in presence of 1 uM ATP relative to control; design: scale not given: the % may be the effect or the level left
Chain of Mitogen-activated protein kinase 14 (Homo sapiens) (Q16539 whole entry): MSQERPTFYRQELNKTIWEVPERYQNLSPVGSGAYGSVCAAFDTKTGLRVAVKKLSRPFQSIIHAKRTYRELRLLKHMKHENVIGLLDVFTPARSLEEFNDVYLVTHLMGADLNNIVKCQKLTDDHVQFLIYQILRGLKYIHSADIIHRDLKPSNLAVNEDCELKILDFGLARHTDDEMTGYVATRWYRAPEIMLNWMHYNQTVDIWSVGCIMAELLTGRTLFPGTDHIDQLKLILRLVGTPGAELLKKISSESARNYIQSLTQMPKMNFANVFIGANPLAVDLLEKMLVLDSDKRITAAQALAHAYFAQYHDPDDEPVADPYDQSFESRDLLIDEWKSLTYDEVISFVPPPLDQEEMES

| Structure (SMILES) | Activity [2] | Activity [3] | Activity [4] | Activity [5] | solubility thermodynamic [6] | Activity [7] | Activity [8] | Activity [9] | Activity [10] | Activity [11] | Activity [12] | Activity [13] | Activity [14] | Activity [16] | Activity [17] | Activity [18] | IC50 [19] | Activity [21] | half-life [22] | IC50 [23] | other results |
| --- | --- | --- | --- | --- | --- | --- | --- | --- | --- | --- | --- | --- | --- | --- | --- | --- | --- | --- | --- | --- | --- |
| CCN1CCN(Cc2ccc(-c3cc4c(-c5cccc(N6CCOc7cc(C8CC8)cc(F)c7C6=O)c5CO)ccnc4[nH]3)nc2)CC1 | 81% | 1% | 2% | -6% | 15 µM (≈ 9.7 µg/mL) | -1% | -2% | 2% | -3% | -5% | 0% | 69% | -4% | -3% | -3% | 1% | 5.06 µM | -49% | 5.6 h | > 10 µM | Activity [1]: 83%; Activity [15]: 48%; Activity [20]: 72%; Activity [24]: -41%; Activity [25]: -7% |
| O=C1c2c(F)cc(C3CC3)cc2OCCN1c1cccc(-c2ccnc3[nH]c(C4=CCN(C5COC5)CC4)cc23)c1CO | 56% | -1% | -28% | 2% | 31 µM (≈ 18 µg/mL) | -1% | -3% | -1% | -3% | 1% | 1% | 44% | 3% | 5% | 2% | -3% | > 30 µM | -10% | 1.1 h | > 10 µM | Activity [24]: -16%; Activity [25]: 4% |

— ChEMBL document CHEMBL4177534, “Discovery and evaluation of 1H-pyrrolo[2,3-b]pyridine based selective and reversible small molecule BTK inhibitors for the treatment of rheumatoid arthritis” (Bioorg Med Chem Lett, 2017)
